Data on 7 molecules can be found in US5683989A, “Treatment of ischemias by administration of 2,N^6 -substituted adenosines” (Novo Nordisk A/S, priority 1995, dated 1997).

One assay concerns A1 receptor. Conditions: literature, in words; cited from earlier work.
In a further assay the target is T1, A2 receptor (Rattus norvegicus, UniProt P30543).
T1 construct: from tissue
As to the kind of experiment: In vitro binding to adenosine A2 receptor, radioligand [^3 H]-CGS 21680. Particulars: [^3 H]-CGS 21680 radioligand; single determinations only. The source says: (§1) Evaluation of in vitro binding to adenosine A1 and A2 receptors
(§2) The methods used are described fully in European Journal of Pharmacology, 1993, 242, 221-228.

Another assay has as its target T2, adenosine A1 receptor (Rattus norvegicus, UniProt P25099).
T2 construct: from tissue
T2 sequence (P25099 1-326): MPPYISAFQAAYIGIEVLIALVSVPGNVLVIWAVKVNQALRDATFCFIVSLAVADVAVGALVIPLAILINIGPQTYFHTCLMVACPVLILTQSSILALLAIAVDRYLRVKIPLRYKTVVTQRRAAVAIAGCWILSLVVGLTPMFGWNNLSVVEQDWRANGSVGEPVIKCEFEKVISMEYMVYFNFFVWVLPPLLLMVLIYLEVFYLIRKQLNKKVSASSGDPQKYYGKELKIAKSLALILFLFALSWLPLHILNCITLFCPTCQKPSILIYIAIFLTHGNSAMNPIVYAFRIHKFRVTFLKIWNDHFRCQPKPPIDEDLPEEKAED
The assay can be described thus: In vitro binding to adenosine A1 receptor, radioligand [^3 H]-(R)-PIA. Particulars: single determinations only; for Ki: [^3 H]-(R)-PIA radioligand; for Ratio A2 /A1: ratio of A2 Ki to A1 Ki.
Description: as §1, §2

T1 sequence (P30543 whole entry): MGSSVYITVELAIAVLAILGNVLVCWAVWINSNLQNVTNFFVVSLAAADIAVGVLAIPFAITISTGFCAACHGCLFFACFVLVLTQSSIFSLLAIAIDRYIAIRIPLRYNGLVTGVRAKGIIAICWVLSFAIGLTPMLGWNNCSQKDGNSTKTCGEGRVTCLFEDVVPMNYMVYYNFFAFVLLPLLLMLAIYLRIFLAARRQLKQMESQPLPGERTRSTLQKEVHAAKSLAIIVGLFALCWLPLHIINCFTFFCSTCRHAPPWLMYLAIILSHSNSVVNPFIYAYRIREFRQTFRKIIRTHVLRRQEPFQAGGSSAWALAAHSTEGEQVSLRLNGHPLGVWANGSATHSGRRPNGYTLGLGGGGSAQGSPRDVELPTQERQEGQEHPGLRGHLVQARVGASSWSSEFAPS

Consider `OC[C@H]1O[C@@H](n2cnc3c(NC4CCCC4)nc(Cl)nc32)[C@H](O)[C@@H]1O` [CCPA, 2-chloro-N-cyclopentyladenosine], for which the “selectivity for the A1 receptor over the A2 receptor” value with A1 receptor is on record as “most selective for the A1 receptor over the A2 receptor”.
Turning to `Cc1nnc(SC[C@@H](C)Nc2nc(Cl)nc3c2ncn3[C@@H]2O[C@H](CO)[C@@H](O)[C@H]2O)s1` [Example 3, 2-Chloro-N-{(R)-1-[5-methyl-(1,3,4-thiadiazol-2-yl)]thio-2-propyl}adenosine], on A2 receptor, affinity was put at a Ki of 990 nM. Further, on adenosine A1 receptor, the Ki came out at 9 nM and the “Ratio A2 /A1” value was determined as 110.
The molecule `C[C@H](CSc1nc2ccccc2s1)Nc1nc(F)nc2c1ncn2[C@@H]1O[C@H](CO)[C@@H](O)[C@H]1O` [Example 13, N-[(R)-1-(2-Benzothiazolyl)thio-2-propyl]-2-fluoroadenosine] displayed a Ki at A2 receptor of 2570 nM. Also, at adenosine A1 receptor, the Ki turned out to be 3.4 nM and the “Ratio A2 /A1” value is on record as 756.
In the same order, the values of `CC[C@H](CSc1nc2ccccc2s1)Nc1nc(Cl)nc2c1ncn2[C@@H]1O[C@H](CO)[C@@H](O)[C@H]1O` [Example 15, N-[(R)-1-(2-Benzothiazolyl)thio-2-butyl]-2-chloroadenosine] are 950 nM, 7 nM and 136.
In the same order, the values of `C[C@H](CSc1nc2cc(Cl)ccc2s1)Nc1nc(Cl)nc2c1ncn2[C@@H]1O[C@H](CO)[C@@H](O)[C@H]1O` [Example 22, 2-Chloro-N-[(R)-1-(5-chloro-2-benzothiazolyl)thio-2-propyl]adenosine] are 1000 nM, 10 nM and 100.
In the case of `C[C@H](CSc1cccs1)Nc1nc(Cl)nc2c1ncn2[C@@H]1O[C@H](CO)[C@@H](O)[C@H]1O` [Example 23, 2-Chloro-N-[(R)-1-(2-thienyl)thio-2-propyl]adenosine], on A2 receptor, the Ki was determined as 170 nM. Further, on adenosine A1 receptor, the inhibition constant Ki stood at 4.5 nM and the “Ratio A2 /A1” value was found to be 38.
For `C[C@H](CSc1n[nH]c(-c2ccccc2)n1)Nc1nc(Cl)nc2c1ncn2[C@@H]1O[C@H](CO)[C@@H](O)[C@H]1O` [Example 27, 2-Chloro-N-{(R)-1-[5-phenyl-(1,2,4-triazol-3-yl)]thio-2-propyl}adenosine], the inhibition constant (Ki) at A2 receptor amounted to 4970 nM; at adenosine A1 receptor, 14 nM. Moreover, the “Ratio A2 /A1” value on adenosine A1 receptor is 355.

A word on the Ki: it is a dissociation constant, usually derived from enzyme kinetics or from competition with a known ligand. Low readings indicate a stronger hold on the target, high ones a looser hold on the target.
